Experimental data from US8076331B2, “Substituted pyridazine derivatives” (Cephalon, Inc., priority 2008, dated 2011).
Where a name gives a salt, the structure may show the parent alone.

Assays:
human H3 receptor = molecular target: T1, human H3 receptor (Homo sapiens, UniProt Q9Y5N1); assay: Human H3 radioligand binding ([3H]-N-alpha-methylhistamine, CHO cell membranes); conditions: membranes of CHO cells stably expressing the human H3 receptor; [3H]-N-alpha-methylhistamine approx. 1 nM
T1 construct: expressed in transfected cells
T1 sequence (Q9Y5N1 whole entry): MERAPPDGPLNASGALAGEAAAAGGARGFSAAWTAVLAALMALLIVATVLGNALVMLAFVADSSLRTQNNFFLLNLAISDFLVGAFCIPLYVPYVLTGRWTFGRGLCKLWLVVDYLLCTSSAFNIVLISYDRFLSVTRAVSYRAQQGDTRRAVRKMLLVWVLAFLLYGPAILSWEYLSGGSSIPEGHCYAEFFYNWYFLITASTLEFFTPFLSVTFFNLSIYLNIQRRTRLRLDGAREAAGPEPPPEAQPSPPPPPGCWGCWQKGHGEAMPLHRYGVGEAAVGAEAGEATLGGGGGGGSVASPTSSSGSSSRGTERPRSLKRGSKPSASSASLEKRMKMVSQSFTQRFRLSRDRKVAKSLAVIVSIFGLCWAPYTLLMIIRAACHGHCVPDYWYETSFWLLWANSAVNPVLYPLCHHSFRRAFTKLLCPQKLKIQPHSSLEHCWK
Experimental: Methods: CHO cells stably expressing the human H3 receptor (GenBank: NM_007232) were harvested and cell pellets were frozen (—80° C.). Cell pellets were resuspended in 5 mM Tris-HCl, pH 7.5 with […] and a cocktail of protease inhibitors (Complete Protease Inhibitior Tablets, Roche Diagnostics). Cells were disrupted using a polytron cell homogenizer and the suspension was centrifuged at 1000×g for 10 minutes at 4° C. The pellet was discarded and the supernatant centrifuged at 40,000×g for 30 min at 4° C. This membrane pellet was washed in membrane buffer containing 50 mM Tris-HCl, pH 7.5 with 0.6 mM EDTA, 5 mM MgCl2 and protease inhibitors, recentrifuged as above and the final pellet resuspended in membrane buffer plus 250 mM sucrose and frozen at −80° C.
Radioligand Binding. Membranes were resuspended in 50 mM Tris HCl (pH 7.4), 5 mM MgCl2, 0.1% BSA. The membrane suspensions (10 μg protein per well) were incubated in a 96 well microtiter plate with [^3H]-N-alpha-methylhistamine (approximately 1 nM final concentration), test compounds at various concentrations (0.01 nM-30 μM) and scintillation proximity beads (Perkin Elmer, FlashBlueGPCR Scintillating Beads) in a final volume of 80 μl for 4 hours at room temperature, protected from light. Non-specific binding was determined in the presence of 10 μM clobenpropit. Radioligand bound to receptor, and therefore in proximity to the scintillation beads, was measured using a MicroBeta scintillation counter.

Compound: CNc1ccc(-c2ccc(OCCCN3CCC[C@H]3C)cc2)nn1 [Example 8, Methyl-(6-{4-[3-((R)-2-methyl-pyrrolidin-1-yl)-propoxy]phenyl}pyridazin-3-yl)amine]
- Ki (human H3 receptor): < 50 nM
- melting point: 126 to 129 °C

Compound: C[C@@H]1CCCN1CCCOc1ccc(-c2ccc(-c3cc4ccccc4o3)nn2)cc1 [Example 41, 3-Benzofuran-2-yl-6-{4-[3-((R)-2-methyl-pyrrolidin-1-yl)-propoxy]-phenyl}pyridazine]
- Ki (human H3 receptor): < 50 nM
- melting point: 180 °C

Compound: c1ccc(Oc2ccc(-c3ccc(OCCCN4CCCCC4)cc3)nn2)cc1 [Example 25, 3-Phenoxy-6-[4-(3-piperidin-1-yl-propoxy)phenyl]pyridazine]
- Ki (human H3 receptor): < 50 nM
- melting point: 139 °C

Compound: CCNc1ccc(-c2ccc(OCCCN3CCC[C@H]3C)cc2)nn1 [Example 28, Ethyl-(6-{4-[3-((R)-2-methyl-pyrrolidin-1-yl)-propoxy]-phenyl}pyridazin-3-yl)amine]
- Ki (human H3 receptor): < 50 nM

Compound: C[C@@H]1CCCN1CCCOc1ccc(-c2ccc(S(=O)(=O)Cc3ccccc3)nn2)cc1 [Example 37, 3-{4-[3-((R)-2-Methyl-pyrrolidin-1-yl)-propoxy]phenyl}-6-phenylmethanesulfonyl-pyridazine]
- Ki (human H3 receptor): < 50 nM

Compound: C[C@@H]1CCCN1CCCOc1ccc(-c2ccc(OCc3ccccc3)nn2)cc1 [Example 21, 3-Benzyloxy-6-{4-[3-((R)-2-methyl-pyrrolidin-1-yl)-propoxy]phenyl}pyridazine]
- Ki (human H3 receptor): < 50 nM
- melting point: 114 °C

Compound: Clc1ccc(-c2ccc(OCCCN3CCCCC3)cc2)nn1 [Example 2, 3-Chloro-6-[4-(3-piperidin-1-yl-propoxy)-phenyl]pyridazine]
- Ki (human H3 receptor): < 50 nM
- melting point: 140 °C

Compound: C[C@H](COc1ccc(-c2ccc(Cl)nn2)cc1)CN1CCC[C@H]1C [Example 43, 3-Chloro-6-{4-[(S)-2-methyl-3-((R)-2-methylpyrrolidin-1-yl)propoxy]-phenyl}pyridazine]
- Ki (human H3 receptor): < 50 nM

Compound: CSc1nnc(-c2ccc(OCCCN3CCC[C@H]3C)cc2)c2c1CCC2 [Example 32, 1-{4-[3-((R)-2-Methyl-pyrrolodin-1-yl)-propoxy]-phenyl}-4-methylsulfanyl-6,7-dihydro-5H-cyclopenta[d]pyridazine]
- Ki (human H3 receptor): < 50 nM

Compound: C[C@@H]1CCCN1CCCOc1ccc(-c2ccc(Cl)nn2)cc1 [Example 1, 3-Chloro-6-{4-[3-((R)-2-methyl-pyrrolidin-1-yl)propoxy]-phenyl}pyridazine]
- Ki (human H3 receptor): < 50 nM

Compound: C[C@@H]1CCCN1CCCOc1ccc(-c2cccnn2)cc1 (as salt: HCl) [Example 45, 3-{4-[3-((R)-2-Methyl-pyrrolidin-1-yl)-propoxy]-phenyl}-pyridazine]
- melting point: 198 to 201 °C

Compound: C[C@@H]1CCCN1CCCOc1ccc(-c2cccnn2)cc1 [Example 45, 3-{4-[3-((R)-2-Methyl-pyrrolidin-1-yl)-propoxy]-phenyl}-pyridazine]
- Ki (human H3 receptor): < 50 nM

Compound: C[C@@H]1CCCN1CCCOc1ccc(-c2ccc(N3CCOCC3)nn2)cc1 [Example 6, 4-(6-{4-[3-((R)-2-Methylpyrrolidin-1-yl)-propoxy]phenyl}pyridazin-3-yl)morpholine]
- Ki (human H3 receptor): < 50 nM

Compound: C[C@@H]1CCCN1CCCOc1ccc(-c2ccc([S+]([O-])Cc3ccccc3)nn2)cc1 (stereo partly drawn) [Example 35, 3-{4-[3-((R)-2-Methylpyrrolidin-1-yl)propoxy]phenyl}-6-phenylmethanesulfinyl-pyridazine]
- Ki (human H3 receptor): < 50 nM

Compound: c1ccc(COc2ccc(-c3ccc(OCCCN4CCCCC4)cc3)nn2)cc1 [Example 20, 3-Benzyloxy-6-[4-(3-piperidin-1-yl-propoxy)phenyl]pyridazine]
- Ki (human H3 receptor): < 50 nM

Compound: Cc1ccc(-c2ccc(OCCCN3CCC[C@H]3C)cc2)nn1 [Example 3, 3-Methyl-6-{4-[3-((R)-2-methyl-pyrrolidin-1-yl)-propoxy]-phenyl}pyridazine]
- Ki (human H3 receptor): < 50 nM
